The record followed here is ChEMBL document CHEMBL4699482, “Synthesis and SAR of a series of mGlu NAMs based on an ethyl-8-methoxy-4-(4-phenylpiperazin-1-yl)quinoline carboxylate core” (Bioorg Med Chem Lett, 2020).

Data set [1] addresses Metabotropic glutamate receptor 7 (Rattus norvegicus, UniProt P35400). Briefly: Negative allosteric modulation of rat mGlu7 receptor expressed in HEK cells co-expressing Galpha15 assessed as reduction in calcium mobilization incubated for 142 secs prior to glutamate addition and after 120 secs treated with L-AP4 and measured after 40 secs by Fluo-4 AM dye based fluorescence assay. The data set is classed as functional, cell-based. (In general: Calcium flux is commonly read through the fluorescence of an indicator in the cells.)

Data set [2] addresses Metabotropic glutamate receptor 7 (Rattus norvegicus) (UniProt P35400). Nature of the data set: Negative allosteric modulation of rat mGlu7 receptor expressed in HEK cells co-expressing Galpha15 assessed as minimum L-AP4 response by measuring reduction in calcium mobilization incubated for 142 secs prior to glutamate addition and after 120 secs treated with L-AP4 and measured after 40 secs by Fluo-4 AM dye based fluorescence assay relative to L-AP4. Type of data set: functional, cell-based. Further details: scale not given: the % may be the effect or the level left. Conditions: time 302.0 sec.

A short description of data set [3]: Fraction unbound in rat brain homogenate at 5 uM incubated for 6 hrs by equilibrium dialysis method. The data set is classed as ADME, tissue-based. In general terms: In equilibrium dialysis free small molecules cross a membrane that holds back macromolecules.
Data set [4] can be described thus: Fraction unbound in mouse plasma at 5 uM incubated for 4 hrs by equilibrium dialysis method. Type of data set: ADME, cell-free.
The nature of data set [5]: Fraction unbound in rat plasma at 5 uM incubated for 4 hrs by equilibrium dialysis method. The data set is classed as ADME, cell-free.
Data set [6] in a line: Fraction unbound in mouse brain homogenate at 5 uM incubated for 6 hrs by equilibrium dialysis method. The data set is classed as ADME, tissue-based.
Data set [7] in a line: Fraction unbound in human plasma at 5 uM incubated for 4 hrs by equilibrium dialysis method. The data set is classed as ADME, cell-free.
In data set [8] the target is Metabotropic glutamate receptor 4 (Homo sapiens, UniProt Q14833). Briefly: Negative allosteric modulation of mGlu4 receptor (unknown origin).
Data set [9] concerns the target Metabotropic glutamate receptor 8 (Homo sapiens, UniProt O00222). Briefly: Negative allosteric modulation of mGlu8 receptor (unknown origin).
Setting [10] is: filed as negative allosteric modulator.

Sequence of Metabotropic glutamate receptor 7 (P35400 whole entry): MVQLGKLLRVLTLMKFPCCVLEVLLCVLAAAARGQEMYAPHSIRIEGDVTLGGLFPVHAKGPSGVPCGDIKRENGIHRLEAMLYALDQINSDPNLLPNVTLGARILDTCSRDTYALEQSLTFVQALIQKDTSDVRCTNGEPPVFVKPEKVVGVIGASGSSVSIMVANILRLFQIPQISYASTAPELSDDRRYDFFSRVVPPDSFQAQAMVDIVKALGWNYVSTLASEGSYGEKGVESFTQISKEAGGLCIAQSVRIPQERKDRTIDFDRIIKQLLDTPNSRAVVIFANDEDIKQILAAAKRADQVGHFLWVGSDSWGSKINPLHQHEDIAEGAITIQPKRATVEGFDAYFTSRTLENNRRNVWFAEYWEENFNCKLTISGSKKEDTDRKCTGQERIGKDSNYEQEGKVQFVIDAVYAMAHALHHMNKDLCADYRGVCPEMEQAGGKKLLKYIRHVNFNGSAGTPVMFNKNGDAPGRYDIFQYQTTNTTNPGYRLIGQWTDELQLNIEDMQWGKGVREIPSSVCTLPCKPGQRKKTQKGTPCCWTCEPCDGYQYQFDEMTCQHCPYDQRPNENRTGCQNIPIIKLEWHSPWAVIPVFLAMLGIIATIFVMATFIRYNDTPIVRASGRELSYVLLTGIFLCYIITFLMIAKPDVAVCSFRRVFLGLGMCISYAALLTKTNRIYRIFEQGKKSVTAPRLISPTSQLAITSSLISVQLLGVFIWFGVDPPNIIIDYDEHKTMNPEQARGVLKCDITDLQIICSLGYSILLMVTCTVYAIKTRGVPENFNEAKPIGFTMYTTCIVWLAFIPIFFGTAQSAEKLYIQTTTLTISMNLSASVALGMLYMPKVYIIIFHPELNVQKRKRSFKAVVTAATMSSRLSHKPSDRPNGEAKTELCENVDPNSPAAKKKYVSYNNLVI
Sequence of Metabotropic glutamate receptor 7 (Rattus norvegicus) (P35400 whole entry): as above
Sequence of Metabotropic glutamate receptor 4 (Q14833 whole entry): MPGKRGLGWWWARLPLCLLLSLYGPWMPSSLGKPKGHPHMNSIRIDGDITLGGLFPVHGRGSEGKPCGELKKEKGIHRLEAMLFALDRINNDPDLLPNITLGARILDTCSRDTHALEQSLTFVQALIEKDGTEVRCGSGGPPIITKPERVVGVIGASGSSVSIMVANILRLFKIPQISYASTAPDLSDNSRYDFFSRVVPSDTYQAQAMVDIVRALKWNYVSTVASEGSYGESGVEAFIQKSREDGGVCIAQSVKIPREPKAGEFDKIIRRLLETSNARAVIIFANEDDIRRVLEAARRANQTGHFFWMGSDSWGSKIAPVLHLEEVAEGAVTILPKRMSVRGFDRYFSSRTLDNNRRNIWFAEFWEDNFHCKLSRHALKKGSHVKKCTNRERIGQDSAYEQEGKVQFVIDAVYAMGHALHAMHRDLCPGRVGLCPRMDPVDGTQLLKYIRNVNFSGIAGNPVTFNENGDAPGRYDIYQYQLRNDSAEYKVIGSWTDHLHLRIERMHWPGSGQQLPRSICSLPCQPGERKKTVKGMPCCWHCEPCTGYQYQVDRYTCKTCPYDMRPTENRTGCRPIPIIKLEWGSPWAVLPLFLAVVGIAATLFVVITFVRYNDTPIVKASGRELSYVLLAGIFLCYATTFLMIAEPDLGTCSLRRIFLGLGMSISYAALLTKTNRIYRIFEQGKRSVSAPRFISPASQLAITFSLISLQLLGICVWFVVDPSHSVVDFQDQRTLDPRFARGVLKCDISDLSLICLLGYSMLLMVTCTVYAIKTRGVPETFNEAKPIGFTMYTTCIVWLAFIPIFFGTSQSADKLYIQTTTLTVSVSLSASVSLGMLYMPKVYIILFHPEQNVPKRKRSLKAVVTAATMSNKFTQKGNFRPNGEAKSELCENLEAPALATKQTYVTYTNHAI
Sequence of Metabotropic glutamate receptor 8 (O00222 whole entry): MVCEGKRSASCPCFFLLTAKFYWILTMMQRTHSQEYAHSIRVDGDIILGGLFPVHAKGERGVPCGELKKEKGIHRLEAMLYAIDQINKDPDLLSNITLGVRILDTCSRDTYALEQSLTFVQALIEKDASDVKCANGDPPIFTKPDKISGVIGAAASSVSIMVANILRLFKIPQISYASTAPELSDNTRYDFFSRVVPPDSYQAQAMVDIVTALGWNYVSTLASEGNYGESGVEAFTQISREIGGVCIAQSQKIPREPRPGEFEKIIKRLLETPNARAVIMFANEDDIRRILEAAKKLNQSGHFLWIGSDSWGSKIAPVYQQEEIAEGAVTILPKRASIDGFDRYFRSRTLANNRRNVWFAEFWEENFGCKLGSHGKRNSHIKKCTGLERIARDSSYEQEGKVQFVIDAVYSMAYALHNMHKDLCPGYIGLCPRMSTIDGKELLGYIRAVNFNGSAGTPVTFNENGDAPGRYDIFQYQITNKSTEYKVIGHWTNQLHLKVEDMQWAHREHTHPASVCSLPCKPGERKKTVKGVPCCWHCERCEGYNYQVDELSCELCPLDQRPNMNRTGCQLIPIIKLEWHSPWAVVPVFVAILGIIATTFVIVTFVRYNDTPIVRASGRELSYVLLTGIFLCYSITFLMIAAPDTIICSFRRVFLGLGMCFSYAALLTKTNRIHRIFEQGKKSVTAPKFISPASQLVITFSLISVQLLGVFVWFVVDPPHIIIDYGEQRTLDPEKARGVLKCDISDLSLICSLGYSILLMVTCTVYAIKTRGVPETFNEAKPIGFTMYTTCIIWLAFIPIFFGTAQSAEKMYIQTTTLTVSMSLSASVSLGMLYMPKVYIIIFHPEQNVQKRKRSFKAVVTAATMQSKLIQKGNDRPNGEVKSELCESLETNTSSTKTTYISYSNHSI

Usually IC50 stands for the concentration needed to halve the response being measured. In the case of `CCOC(=O)c1cnc2c(OC)cccc2c1C1CC2CC(C1)N2c1ccccc1OC` (stereo unspecified), in data set [1], the IC50 is greater than 10000 nM. Moreover, the Activity in data set [2] (setting [10]) came out at 41%.
Regarding `CCOC(=O)c1cnc2c(OC)cccc2c1-c1cnc(-c2ccccc2OC)c(OC)c1`, the Fu is on record as 0.04 in data set [3], 0.01 in data set [4], 0.01 in data set [5] and 0.04 in data set [6]. Besides, the IC50 in data set [1] was determined as 350 nM. In addition, the Activity in [2] (setting [10]) is 3.6%.
For the compound `CCOC(=O)c1cnc2c(OC)cccc2c1C1C2CC1CN(c1ccccc1OC)C2` (stereo unspecified), the IC50 in data set [1] was greater than 30000 nM.
As for `CCOC(=O)c1cnc2c(OC)cccc2c1N1CCN(c2ccccc2C)CC1`, the IC50 in data set [1] was greater than 10000 nM. In addition, the Activity in data set [2] (setting [10]) turned out to be 41%.
Take `CCOC(=O)c1cnc2c(OC)cccc2c1N1CCN(c2ccccc2Cl)CC1`: the IC50 in data set [1] was greater than 30000 nM.
As to `CCOC(=O)c1cnc2c(OC)cccc2c1N1CCN(c2ccccc2C#N)CC1`, the IC50 in data set [1] is 4200 nM. Also, the Activity in data set [2] (setting [10]) came out at 14%.
Take `CCOC(=O)c1cnc2c(OC)cccc2c1N1CCN(c2ccccc2OCC)CC1`: the IC50 in data set [1] is 5100 nM. Besides, the Activity in data set [2] (setting [10]) is 8.7%.
`CCOC(=O)c1cnc2c(OC)cccc2c1N1CCN(c2ccccc2SC)CC1`: in data set [1], the IC50 was found to be 510 nM. Further, the Activity in data set [2] (setting [10]) came to 4.7%.
For `CCOC(=O)c1cnc2c(OC)cccc2c1N1CCN(c2c(OC)cccc2OC)CC1` the same measures were 800 nM and 11%.
On the same counts, the results for `CCOC(=O)c1cnc2sccc2c1N1CCN(c2ccccc2OC)CC1` are 4500 nM and 26%.
For `CCOC(=O)c1cnc2c(OC)cccc2c1N1CCN(c2ccccc2OC)CC1`, the Fu in data set [5] was 0.016; in data set [7] it was 0.018. Further, the IC50 was greater than 30000 nM in [8], 647 nM in [1] and greater than 30000 nM in data set [9]. Moreover, the Activity in [2] (setting [10]) worked out at 5.6%.
`CCOC(=O)c1cnc2c(OC)cccc2c1-c1ccn(Cc2ccccc2OC)c1`: the IC50 in [1] came out at 1200 nM. Also, the Activity in data set [2] (setting [10]) was 6.5%.
In the case of `CCOC(=O)c1cnc2c(OC)cccc2c1N1CCN(c2cc(F)ccc2OC)CC1`, the IC50 in [1] amounted to 2100 nM. In addition, the Activity in data set [2] (setting [10]) came to 15%.
`CCOC(=O)c1cnc2ccccc2c1N1CCN(c2ccccc2OC)CC1`: the IC50 in data set [1] is greater than 30000 nM.
As for `CCOC(=O)c1cnc2c(OC)cccc2c1-c1ccc(-c2ccccc2OCC)nc1`, the IC50 in data set [1] is 370 nM. Further, the Activity in data set [2] (setting [10]) was determined as 6.3%.
Consider `CCOC(=O)c1cnc2c(OC)cccc2c1N1CCN(c2nccnc2OC)CC1`, for which, in data set [1], the IC50 turned out to be 3000 nM. In addition, the Activity in [2] (setting [10]) turned out to be 11%.
As to `CCOC(=O)c1cnc2c(OC)cccc2c1-c1ccc(-c2ccccc2OC)nc1`, in data set [1], the IC50 was 600 nM. Further, the Activity in data set [2] (setting [10]) is 6.5%.
For `CCOC(=O)c1cnccc1N1CCN(c2ccccc2OC)CC1`, in data set [1], the IC50 was 4200 nM. Also, the Activity in [2] (setting [10]) was found to be 13%.
For `CCOC(=O)c1cnc2c(OC)cccc2c1C1CCN(c2ccccc2OC)CC1` the same measures were greater than 10000 nM and 41%.
In the case of `CCOC(=O)c1cnc2c(OC)cccc2c1N1CC2(CN(c3ccccc3OC)C2)C1`, the half-maximal inhibitory concentration (IC50) in [1] was greater than 30000 nM.
For the compound `CCOC(=O)c1cnc2c(OC)cccc2c1-c1ccc(-c2ccccc2OC(C)C)nc1`, in [1], the IC50 is 1500 nM. Further, the Activity in [2] (setting [10]) turned out to be 5.8%.
On to `CCOC(=O)c1cnc2c(OC)cccc2c1-c1ccc(-c2ccccc2OC)cn1`, for which the IC50 in [1] is 2800 nM. Moreover, in [2] (setting [10]), the Activity is 6.8%.
`CCOC(=O)c1cnc2c(OC)cc(OC)cc2c1-c1ccc(-c2ccccc2OC)nc1`: the IC50 in [1] stood at 880 nM. The Activity in data set [2] (setting [10]) was 3.5%.
For `CCOC(=O)c1cnc2c(OC)cccc2c1-c1cnc(-c2ccccc2OC)nc1` the same measures were 2400 nM and 12%.
Regarding `CCOC(=O)c1ccc2c(OC)cccc2c1N1CCN(c2ccccc2OC)CC1`, the IC50 in [1] was greater than 30000 nM.
On to `CCOC(=O)c1cnc2c(OC)cc(OC)cc2c1N1CCN(c2ccccc2OC)CC1`, for which the IC50 in data set [1] stood at 670 nM. For the same compound, the Activity in data set [2] (setting [10]) was found to be 3.9%.
Consider `CCOC(=O)c1cnc2c(OC)cccc2c1N1CC2CN(c3ccccc3OC)CC2C1` (stereo unspecified), for which the IC50 in [1] was greater than 10000 nM. The Activity in data set [2] was found to be 57%.
On to `CCOC(=O)c1cnc2c(OC)cccc2c1N1CCN(c2cncs2)CC1`, for which the IC50 in data set [1] is greater than 30000 nM.
For the compound `CCOC(=O)c1cnc2c(OC)cccc2c1N1CCN(c2ccccc2OC)C(C)C1` (racemic), the IC50 in data set [1] came out at 1300 nM. Besides, in [2] (setting [10]), the Activity came to 8.6%.
For `CCOC(=O)c1cnc2c(OC)cccc2c1N1CCN(c2ccccc2OC)CC1C` (racemic) the same measures were 1500 nM and 6.1%.
For `CCOC(=O)c1cnc2c(OC)cccc2c1N1CCN(c2ccccc2OC(C)C)CC1` the same measures were 2300 nM and 6.5%.
On the same counts, the results for `CCOC(=O)c1cnc2c(OC)cccc2c1-c1cnc(-c2ccccc2OC)cn1` are 540 nM and 5.1%.
With `CCOC(=O)c1cnc2c(OC)cccc2c1C1=CCN(c2ccccc2OC)CC1`, the IC50 in data set [1] stood at 3600 nM. Moreover, the Activity in data set [2] (setting [10]) was determined as 9.6%.
Turning to `CCOC(=O)c1cnc2c(OC)cccc2c1N1CCN(c2ccc(OC)cc2OC)CC1`, the IC50 in data set [1] amounted to 1900 nM. The Activity in data set [2] (setting [10]) was found to be 9%.
On the same counts, the results for `CCOC(=O)c1cnc2ccsc2c1N1CCN(c2ccccc2OC)CC1` are 4500 nM and 24%.
With `CCOC(=O)c1cnc2c(OC)cccc2c1-c1ccc(-c2ccccc2SC)nc1`, the IC50 in [1] stood at 410 nM. The Activity in data set [2] (setting [10]) was 5.6%.
On the same counts, the results for `CCOC(=O)c1cnc2c(OC)cccc2c1-c1cc(F)c(-c2ccccc2OC)nc1OC` are 2100 nM and 24%.
On the same counts, the results for `CCOC(=O)c1cnc2c(OC)cccc2c1N(C)CCN(C)c1ccccc1OC` are 4400 nM and 9.6%.
Regarding `CCOC(=O)c1cnc2c(OC)cccc2c1N1CCN(c2cccs2)CC1`, the IC50 in [1] is greater than 30000 nM.
The same measure, in the same setting: with `CCOC(=O)c1cnc2c(OC)cccc2c1N1CCN(c2ccnn2C)CC1` the figure was greater than 30000 nM.
With `CCOC(=O)c1cnc2c(OC)cccc2c1-c1ccc(-c2ccccc2OC)cc1`, the Fu in data set [5] and in data set [7] was less than 0.001 in each case. The IC50 in [1] came to 2900 nM. Also, in data set [2] (setting [10]), the Activity was 4.2%.
As to `CCOC(=O)c1cnc2c(OC)cccc2c1N1CCN(c2ccccc2OC(F)(F)F)CC1`, the IC50 in data set [1] is greater than 30000 nM.
For the compound `CCOC(=O)c1cnc2c(OC)cccc2c1N1CCN(c2ccccc2F)CC1`, the IC50 in data set [1] came out at 6100 nM. Besides, the Activity in data set [2] (setting [10]) was 12%.
On the same counts, the results for `CCOC(=O)c1cnc2c(OC)cccc2c1N1CCN(c2cccnc2OC)CC1` are 1500 nM and 10%.
On the same counts, the results for `CCOC(=O)c1cnc2c(OC)cc(OC)cc2c1-c1ccc(-c2ccccc2OCC)nc1` are 810 nM and 5%.
